Test results: patent US7723091B2 (priority 1999, dated 2010)

Tested on: C. parvum
Test: Anti-cryptosporidial activity in MDCK cell cultures (chemiluminescence immunoassay)
Type: cell-based, Cryptosporidium parvum
Protocol: The enzyme PI-PLC was evaluated for anti-cryptosporidial activity and toxicity at concentrations ranging from 0.001-30 U/ml were performed using 4-day-old Madin-Darby canine kidney (MDCK) cells. Enzyme units were defined as by the method in Example 4 but measured as in Example 9. The preparation of enzyme used was from recombinant Bacillus megaterium. Treatment was initiated 3 hours after infection and continued through 48 hours.
Chemiluminescence Immunoassay. Before infection, oocysts were washed and resuspended in DMEM base with 0.75% sodium taurocholate and incubated for 10 min at 37° C. (You et al., FEMS Microbiol. Letters 136:251-256, 1996; You et al., J. Antimicrobial. Chemother. 41:293-296, 1998). The excystation mixture was diluted with Ultraculture medium, promptly dispensed in plates containing MDCK cells, at 100% confluence, and maintained in Ultraculture medium for 4 days. The inoculum was incubated with the cells for3 h before washing with PBS and replaced with fresh Ultraculture medium with or without test enzyme. Plates were incubated at 37° C., in a 5% CO2 air atmosphere for 48 h. Cultures were washed with PBS and fixed with Bouin's solution.
The fixed plates were washed with TBST buffer (20 mM Tris-HCl (pH 7.5), 150 mM NaCl, 0.05% Tween-20) and blocked with 1% BSA-TBST (TBST buffer containing 1% bovine serum albumin) for 30 min at 25° C. with gentle shaking. Rabbit anti-Cryptosporidium parvum sera (1:200 dilution) was applied to the plates and incubated for 1 hr. After washing with TBST, the samples were sequentially incubated with biotin-labeled goat anti-rabbit IgG and horseradish peroxidase-labeled streptavidin (working dilution, 1:1000, KPL Inc., Gaithersburg, Md.). Enhanced Luminol (4-iodophenol and hydrogen peroxide, Aldrich Chemical Co. Inc., Milwaukee, Wis.) was used as a substrate. The plates were read with an ML3000 Luminometer (Dynatech Lab., Chantilly, Va.) and the relative light units (RLU) were determined. Means of RLU were calculated from 4 replicate wells and all experiments were repeated at least twice.
A second set of experiments were performed to evaluate enzyme specificity. Sporozoites were treated with the enzyme at various concentrations for 45 min and briefly washed. The treated sporozoites were then allowed to infect untreated host cells and develop and reproduce for 48 hours. In a separate experiment, host cells were incubated with the enzyme at various concentrations, washed and infected with untreated sporozoites. As shown below (Table 14), treatment of either sporozoite or host cells with the enzyme results in partial inhibition. A dose dependent inhibition was not observed in this concentration range. This may be due to the short incubation period of the enzyme with host or parasite cells (45 min) or partial or incomplete cleavage of host/parasite receptors. Additionally, other host/parasite receptors are probably involved in infection and account for the growth observed in the host cells.

[1] = Host cells treated before infection (washed), 0.01 Unit/ml
[2] = Host cells treated before infection (washed), 0.03 Unit/ml
[3] = Host cells treated before infection (washed), 0.1 Unit/ml
[4] = Host cells treated before infection (washed), 0.3 Unit/ml
[5] = Host cells treated before infection (washed), 1 Unit/ml
[6] = Sporozoite treated before infection (45 min, washed), 0.01 Unit/ml
[7] = Sporozoite treated before infection (45 min, washed), 0.03 Unit/ml
[8] = Sporozoite treated before infection (45 min, washed), 0.1 Unit/ml
[9] = Sporozoite treated before infection (45 min, washed), 0.3 Unit/ml
[10] = Sporozoite treated before infection (45 min, washed), 1 Unit/ml
[11] = enzyme added 3 h post infection, 48 h, 0.01 Unit/mL
[12] = enzyme added 3 h post infection, 48 h, 0.03 Unit/mL
[13] = enzyme added 3 h post infection, 48 h, 0.1 Unit/mL
[14] = enzyme added 3 h post infection, 48 h, 0.3 Unit/mL
[15] = enzyme added 3 h post infection, 48 h, 1 Unit/mL

Substance: phosphatidylinositol specific phospholipase C [Recombinant PI-PLC]
- Mean Number of Cryptosporidium per microtiter plate well [1]: 543.85
- Percent Inhibition [1]: 56.84%
- Mean Number of Cryptosporidium per microtiter plate well [2]: 522.66
- Percent Inhibition [2]: 58.53%
- Mean Number of Cryptosporidium per microtiter plate well [3]: 455.88
- Percent Inhibition [3]: 63.82%
- Mean Number of Cryptosporidium per microtiter plate well [4]: 629.24
- Percent Inhibition [4]: 50.07%
- Mean Number of Cryptosporidium per microtiter plate well [5]: 393.64
- Percent Inhibition [5]: 68.76%
- Mean Number of Cryptosporidium per microtiter plate well [6]: 542.15
- Percent Inhibition [6]: 56.98%
- Mean Number of Cryptosporidium per microtiter plate well [7]: 527.59
- Percent Inhibition [7]: 58.13%
- Mean Number of Cryptosporidium per microtiter plate well [8]: 536.80
- Percent Inhibition [8]: 57.40%
- Mean Number of Cryptosporidium per microtiter plate well [9]: 433.04
- Percent Inhibition [9]: 65.64%
- Mean Number of Cryptosporidium per microtiter plate well [10]: 412.40
- Percent Inhibition [10]: 67.27%
- inhibition (at a concentration of 0.1 U/mL (FIG. 1), enzyme added 3 h after infection for 48 hours): Approximately 50%
- concentration range with anti-cryptosporidial activity in vitro (enzyme added 3 h after infection for 48 hours): 0.01-1 U/mL
- Mean Number of Cryptosporidium per microtiter plate well [11]: 1167.78
- Percent Inhibition [11]: 7.33%
- Mean Number of Cryptosporidium per microtiter plate well [12]: 912.15
- Percent Inhibition [12]: 27.62%
- Mean Number of Cryptosporidium per microtiter plate well [13]: 595.53
- Percent Inhibition [13]: 52.74%
- Mean Number of Cryptosporidium per microtiter plate well [14]: 286.5
- Percent Inhibition [14]: 77.26%
- Mean Number of Cryptosporidium per microtiter plate well [15]: 285.28
- Percent Inhibition [15]: 77.36%
